Assay results taken from patent publication US5168100A, “HP530 compounds and process for preparing the same” (Sapporo Breweries Limited, priority 1990, dated 1992).
Values after ≈ are worked out from the molar mass of the structure shown.

Columns and labels:
[1] = system: Staphylococcus epidermidis JCM2414; assay: Antimicrobial activity (MIC), Staphylococcus epidermidis; type: cell-based
Text: (§1) The minimum inhibitory concentrations (MIC's) of the HP530 compounds and their derivatives of the invention against bacteria and fungi are shown in Table 2.

[2] = system: Saccharomyces cerevisiae JCM1499; assay: Antimicrobial activity (MIC), Saccharomyces cerevisiae; type: cell-based
Text: as §1

Candida albicans JCM1542 = assay: Antimicrobial activity (MIC), Candida albicans; type: cell-based
Text: as §1

CDF1 mice = assay: Acute toxicity in CDF1 mice; type: in vivo, mouse; conditions: intraperitoneal, three CDF1 mice
Proteus vulgaris JCM1668 = assay: Antimicrobial activity (MIC), Proteus vulgaris; type: cell-based
Text: as §1

Escherichia coli JCM1649 = assay: Antimicrobial activity (MIC), Escherichia coli; type: cell-based
Text: as §1

[3] = system: Klebsiella pneumoniae JCM1662; assay: Antimicrobial activity (MIC), Klebsiella pneumoniae; type: cell-based
Text: as §1

[4] = system: Bacillus subtilis H17Rec^+; assay: Antimicrobial activity (MIC), Bacillus subtilis H17Rec^+; type: cell-based
Text: as §1

[5] = system: Salmonella typhimurium TA1535; assay: Antimicrobial activity (MIC), Salmonella typhimurium; type: cell-based; conditions: Salmonella enterica
Text: as §1

[6] = system: Xanthomonas maltophilia JCM1975; assay: Antimicrobial activity (MIC), Xanthomonas maltophilia; type: cell-based; conditions: Stenotrophomonas maltophilia
Text: as §1

[7] = system: Bacillus subtilis M45Rec^-; assay: Antimicrobial activity (MIC), Bacillus subtilis M45Rec^-; type: cell-based
Text: as §1

[8] = system: Staphylococcus aureus JCM2151; assay: Antimicrobial activity (MIC), Staphylococcus aureus; type: cell-based
Text: as §1

W98 cell line = assay: Cytotoxicity (IC100) against W98 cell line; type: cell-based; conditions: Homo sapiens; W98 cells, final 10% methanol solutions; read-out: IC100 (100% growth inhibiting concentration)
Description: 2) Cytotoxicity (IC100) against W98 cell line obtained by converting the lung cells of a human emryo by an SV40 virus was examined in the following way. When the HP530 compounds and their derivatives dissolved in methanol were added to culture solutions in such a manner that the culture solutions were prepared final 10% methanol solutions, the cytotoxicity of the HP530 compounds and their derivatives against the growth of the W98 cells in the culture solution was measured as 100% growth inhibiting concentration (IC100).

[9] = system: Micrococcus luteus JCM1464; assay: Antimicrobial activity (MIC), Micrococcus luteus; type: cell-based
Text: as §1

[10] = system: mouse fibrosarcoma Meth-A cell line; assay: Antitumor activity, increase in life span of CDF1 mice inoculated with Meth-A cells; type: in vivo; conditions: day 1-4
Text: 1) CDF1 mice were inoculated intraperitoneally with 1×10^6 cells of mouse fibrosarcoma Meth-A cell line on day 0. HP530 compounds and their derivatives dissolved in a physiological salt solution were administrated intraperitoneally once a day on day 1-4. Increase in life span is represented by the percentage of the ratio of the mean number of surviving days (T) of the treated groups of mice to the mean number of surviving days (C) of the untreated groups of mice.

[11] = ethyl acetate, acetone, n-hexane
[12] = solvents in which soluble (acidic water, organic solvents)

| SMILES | MIC [1] | MIC [2] | MIC (Candida albicans JCM1542) | Acute toxicity (CDF1 mice; 20 mg/kg) | MIC (Proteus vulgaris JCM1668) | MIC (Escherichia coli JCM1649) | MIC [3] | MIC [4] | MIC [5] | MIC [6] | MIC [7] | MIC [8] | Solubility (Solubility; [11]) | Solubility (Solubility; [12]) | Solubility (Solubility; water) | IC100 (W98 cell line) | MIC [9] | Antitumor Activity T/C ([10]; 2.5 mg/kg i.p. once a day) | Antitumor Activity T/C ([10]; 5.0 mg/kg i.p. once a day) | Antitumor Activity T/C ([10]; 10.0 mg/kg i.p. once a day) | further results |
| --- | --- | --- | --- | --- | --- | --- | --- | --- | --- | --- | --- | --- | --- | --- | --- | --- | --- | --- | --- | --- | --- |
| CC(=O)OC1C(C)OC(c2ccc3c(c2O)C(=O)c2c(cc(C)c4c(=O)cc(C5(C)OC5C)oc24)C3=O)CC1(C)N(C)C (stereo not drawn) [HP530E] | > 100 µg/mL | > 100 µg/mL | > 100 µg/mL | no toxicity | > 100 µg/mL | > 100 µg/mL | > 100 µg/mL | 12.5 µg/mL (≈ 21.2 µM) | 0.8 µg/mL (≈ 1.36 µM) | > 100 µg/mL | 0.2 µg/mL (≈ 0.339 µM) | 6.3 µg/mL (≈ 10.7 µM) | hardly soluble in ethyl acetate, acetone and n-hexane | Soluble in acidic water, methanol, chloroform and benzene | insoluble in water | 0.0006 µg/mL | 0.8 µg/mL (≈ 1.36 µM) | 104% | 127% | > 196% | Antitumor Activity T/C ([10]; 20.0 mg/kg i.p. once a day): > 192% |
| CC=CC1OC1(C)c1cc(=O)c2c(C)cc3c(c2o1)C(=O)c1c(ccc(C2CC(C)(N(C)C)C(O)C(C)O2)c1O)C3=O (stereo not drawn) [Deacetyl HP530D] | 6.3 µg/mL (≈ 11 µM) | 50 µg/mL (≈ 87.2 µM) | > 100 µg/mL | no toxicity | > 100 µg/mL | > 100 µg/mL | > 100 µg/mL | 12.5 µg/mL (≈ 21.8 µM) | 3.2 µg/mL (≈ 5.58 µM) | 50 µg/mL (≈ 87.2 µM) | 0.4 µg/mL (≈ 0.697 µM) | 1.6 µg/mL (≈ 2.79 µM) | hardly soluble in ethyl acetate, acetone and n-hexane | Soluble in acidic water, methanol, chloroform and benzene | insoluble in water | 0.00015 µg/mL | 1.6 µg/mL (≈ 2.79 µM) |  |  |  | Antitumor Activity T/C ([10]; 0.25 mg/kg i.p. once a day): 92%; Antitumor Activity T/C ([10]; 0.5 mg/kg i.p. once a day): 108%; Antitumor Activity T/C ([10]; 1.0 mg/kg i.p. once a day): 123%; Antitumor Activity T/C ([10]; 2.0 mg/kg i.p. once a day): 185% |
| CC=C(C)c1cc(=O)c2c(C)cc3c(c2o1)C(=O)c1c(ccc(C2CC(C)(N(C)C)C(OC(C)=O)C(C)O2)c1O)C3=O (stereo not drawn) [HP530G] | 25 µg/mL (≈ 43.6 µM) | > 100 µg/mL | > 100 µg/mL | no toxicity | > 100 µg/mL | > 100 µg/mL | > 100 µg/mL | 100 µg/mL (≈ 174 µM) | 100 µg/mL (≈ 174 µM) | > 100 µg/mL | 3.2 µg/mL (≈ 5.58 µM) | 50 µg/mL (≈ 87.2 µM) | hardly soluble in ethyl acetate, acetone and n-hexane | Soluble in acidic water, methanol, chloroform and benzene | insoluble in water | 0.1 µg/mL | 12.5 µg/mL (≈ 21.8 µM) | 112% | 123% | 115% | Antitumor Activity T/C ([10]; 20.0 mg/kg i.p. once a day): 123% |
| CC=CC1OC1(C)c1cc(=O)c2c(C)cc3c(c2o1)C(=O)c1c(ccc(C2CC(C)(N(C)C)C(OC(C)=O)C(C)O2)c1O)C3=O (stereo not drawn) [HP530D] | 3.2 µg/mL (≈ 5.2 µM) | 6.3 µg/mL (≈ 10.2 µM) | 100 µg/mL (≈ 162 µM) |  | > 100 µg/mL | > 100 µg/mL | > 100 µg/mL | 3.2 µg/mL (≈ 5.2 µM) | 1.6 µg/mL (≈ 2.6 µM) | 3.2 µg/mL (≈ 5.2 µM) | 0.4 µg/mL (≈ 0.65 µM) | 1.6 µg/mL (≈ 2.6 µM) | hardly soluble in ethyl acetate, acetone and n-hexane | Soluble in acidic water, methanol and chloroform | insoluble in water | 0.0006 µg/mL | 1.6 µg/mL (≈ 2.6 µM) |  |  |  | Acute toxicity (CDF1 mice; 10 mg/kg): no toxicity; Antitumor Activity T/C ([10]; 0.25 mg/kg i.p. once a day): 108%; Antitumor Activity T/C ([10]; 0.5 mg/kg i.p. once a day): 123%; Antitumor Activity T/C ([10]; 1.0 mg/kg i.p. once a day): 192%; Antitumor Activity T/C ([10]; 2.0 mg/kg i.p. once a day): > 215% |
| Cc1cc2c(c3oc(C4(C)OC4C)cc(=O)c13)C(=O)c1c(ccc(C3CC(C)(N(C)C)C(O)C(C)O3)c1O)C2=O (stereo not drawn) [Deacetyl HP530E] | 6.3 µg/mL (≈ 11.5 µM) | > 100 µg/mL | > 100 µg/mL |  | > 100 µg/mL | > 100 µg/mL | > 100 µg/mL | 6.3 µg/mL (≈ 11.5 µM) | 0.4 µg/mL (≈ 0.73 µM) | 25 µg/mL (≈ 45.7 µM) | 0.2 µg/mL (≈ 0.365 µM) | 3.2 µg/mL (≈ 5.84 µM) | hardly soluble in ethyl acetate, acetone and n-hexane | Soluble in acidic water, methanol, chloroform and benzene | insoluble in water | 0.00015 µg/mL | 0.4 µg/mL (≈ 0.73 µM) | 183% | > 187% | 83% | Acute toxicity (CDF1 mice; 5 mg/kg): no toxicity; Antitumor Activity T/C ([10]; 1.25 mg/kg i.p. once a day): 107% |
